According to PubChem BioAssay AID1361 (SRMLSC, 2008):
pIC50: −log10 of the molar value. Active and inactive are the calls of the source. No rule for the calls is given here.

Assay: mitochondrial fusion inhibitors, confirmation, cell-based, chemical genetic, wild-type and mutant (AID 1361)
Settings: Cell-based mitochondrial fusion phenotype, imaging
[1] = mutant cells, measured here: mutant cell line IC50

SMILES | pIC50 (WT cells) | pIC50 [1] | IC50 (WT cells)
CC(C)(C)n1nnnc1C(c1cccs1)N(Cc1cccnc1)Cc1ccccc1Cl (configuration not stated) | 4.63 | < 4.60 | –
Cc1ccc(C(=O)Nc2nc(-c3ccccc3)c(-c3ccccc3)o2)cc1 | 5.30 | 5.03 | –
COc1ccccc1Nc1ncnc2nc[nH]c12 | – | < 4.60 | > 25 µM (inactive)
Cc1oc(-c2ccccc2)nc1CN1C(=O)CN=C(c2ccccc2)c2ccccc21 | – | < 4.60 | > 25 µM (inactive)
CCCCCC(=O)O[C@]1(C(C)=O)CC[C@H]2[C@@H]3CCC4=CC(=O)CC[C@]4(C)[C@H]3CC[C@@]21C | 4.90 | < 4.60 | –
CCOC(=O)c1c(C)[nH]c(C)c1C(=O)CSc1nnc(-c2ccncc2)n1C | – | < 4.60 | > 25 µM (inactive)
Cc1cc(C)nc(N2CCCC(C(=O)NCc3cccs3)C2)n1 (configuration not stated) | – | < 4.60 | > 25 µM (inactive)
Cc1cccc(N2CCN(C(c3cccs3)c3nnnn3C(C)(C)C)CC2)c1C (configuration not stated) | 4.96 | < 4.60 | –
CCCCc1nc(NCCN)c(C#N)c2c1CSC(C)(C)C2 | 4.66 | < 4.60 | –
O=C(CNC(=S)N(Cc1ccccc1)Cc1cccs1)NCc1ccc(F)cc1 | – | < 4.60 | > 25 µM (inactive)
c1csc(C(c2nnnn2C2CCCCC2)N2CCCC3(CCCCC3)C2)c1 (configuration not stated) | 5.38 | < 4.60 | –
CN1CC(c2ccccc2)C2(SC(=S)N(Cc3ccco3)C2=O)C12C(=O)Nc1ccccc12 (configuration not stated) | 5.16 | 4.92 | –
COC(=O)C1C(=O)NCC1c1ccccc1 (configuration not stated) | – | < 4.60 | > 25 µM (inactive)
Clc1ccc2ncc(-c3nnnn3-c3ccccc3)c(-c3ccccc3)c2c1 | 4.80 | < 4.60 | –
COCCn1c(SCc2cc(C(C)=O)ccc2OC)nc2cc(Cl)ccc2c1=O | 5.09 | < 4.60 | –
COCCn1c(CN2CCC(Cc3ccccc3)CC2)nc2c1c(=O)n(C)c(=O)n2C | – | < 4.60 | > 25 µM (inactive)
Cc1cc(Br)c(OCc2ccc(C(=O)N/N=C3\CC4CC=CC34)cc2)c(Br)c1 (configuration not stated) | 5.10 | 4.85 | –
CCN(Cc1cc2ccc(C)cc2[nH]c1=O)C(=O)c1ccncc1 | – | < 4.60 | > 25 µM (inactive)
C=C(C)C1CC=C(C)/C(=N\NC(=S)Nc2ccc(C)cc2)C1 (configuration not stated) | – | < 4.60 | > 25 µM (inactive)
O=C(CCc1ccccc1)NC(=S)Nc1cccc(Br)c1 | 4.86 | 4.67 | –
Cn1cc(C(=O)c2ccc(Cl)cc2Cl)cc1C(=O)O | – | < 4.60 | > 25 µM (inactive)

SMILES | pIC50 (WT cells) | pIC50 [1] | IC50 (WT cells)
COc1ccc(CNC(=O)[C@H](C)[C@@H]2C[C@@]2(C)[C@@H](NC(=O)OCc2ccccc2)c2ccccc2)cc1OC | 4.65 | < 4.60 | –
Cn1c(=O)cc(OCCCC(=O)N2CCN(c3ccccc3)CC2)c2ccccc21 | – | < 4.60 | > 25 µM (inactive)
Fc1ccc(-c2csc3ncnc(N4CCc5ccccc5C4)c23)cc1 | 5.03 | < 4.60 | –
CCOC(=O)c1cnc(SC)nc1Sc1cc(Cl)ccc1Cl | 4.95 | 4.62 | –
COc1ccc(-c2nc3n(c(=O)c2C#N)CCCS3)cc1 | – | < 4.60 | > 25 µM (inactive)
O=C1C(Cl)=C(NC2CCCCC2)C(=O)N1Cc1ccccc1 | 4.72 | < 4.60 | –
c1ccc(-c2nc(N3CCCCC3)nc3ccccc23)cc1 | 4.74 | 4.71 | –
Cc1cccc(NC(=S)N=Nc2c(O)[nH]c3ccccc23)c1 | – | < 4.60 | > 25 µM (inactive)
Cc1[nH][nH]c(=O)c1C(c1c(C)[nH][nH]c1=O)c1cn(Cc2ccccc2Cl)c2ccccc12 | – | < 4.60 | > 25 µM (inactive)
COc1cccc2cc(C(=O)N3CCc4ccccc43)c(=O)oc12 | – | < 4.60 | > 25 µM (inactive)
CCn1nccc1C(=O)Nc1ccc(S(=O)(=O)NC23CC4CC(CC(C4)C2)C3)cc1 | – | < 4.60 | > 25 µM (inactive)
O=C(CSc1nnnn1-c1ccccc1)NCc1cccs1 | – | < 4.60 | > 25 µM (inactive)
Cc1ccc(NC(=S)N(Cc2cccc(Br)c2)CC2CCC(C(=O)O)CC2)cc1Cl (configuration not stated) | 4.66 | < 4.60 | –
CC(C)(C)c1ccc(NC(=O)c2ccccc2)c([N+](=O)[O-])c1 | – | < 4.60 | 24.9 µM (inactive)
CCC1Oc2ccc(C)cc2N(CC(=O)NCCCN2CCCCC2CC)C1=O (configuration not stated) | – | < 4.60 | > 25 µM (inactive)
CC1(C(=O)OCC(=O)c2c[nH]c3ccccc23)CC1(Cl)Cl (configuration not stated) | 5.23 | 5.00 | –
CCOC(=O)c1c(-n2c(C)cc(C=C3C(=O)NC(=S)NC3=O)c2C)sc2c1CCCC2 | 5.14 | < 4.60 | –
COc1cc2c(cc1NC(=O)CSc1nc3ccccc3[nH]1)oc1ccccc12 | 4.95 | < 4.60 | –
O=C(Nc1ccc(C(O)(C(F)(F)F)C(F)(F)F)cc1)c1ccc(Cl)c([N+](=O)[O-])c1 | 4.73 | < 4.60 | –
CCCCCC[n+]1c(-c2ccccc2)csc1Nc1ccccc1 | 5.31 | 4.83 | –
